Measurements as given in US4169197A, “6-Deoxyneamines aminoglycoside compounds” (The Upjohn Company, priority 1978, dated 1979).
In brackets after ≈: the same amount, converted by molar mass.

Experiments:
Format in all cases: cell-based
B. cereus UC 3145 = assay: standard disc plate assay, zones of inhibition; conditions: Bacillus cereus, UC3145; 1 mg/ml; 12.5 mm paper discs; Table II; read-out: Zones of Inhibition
Text: (§1) The compounds of formulas (V, VII, IX, XI, XIV, XVI, and XIX) are active as antibacterials and can be used in various environments to erradicate or control susceptible microorganisms. Tables I and II set forth the in vitro antibacterial test results for representative compounds of the present invention. The results were obtained with a standard disc plate assay using 12.5 mm paper discs.

S. aureus UC 80 = assay: standard disc plate assay, zones of inhibition; conditions: Staphylococcus aureus, UC80, 12.5 mm paper discs, Table II, read-out: Zones of Inhibition
Text: as §1

B. subtilis UC 564 = assay: standard disc plate assay, zones of inhibition; conditions: Bacillus subtilis, UC564, 12.5 mm paper discs, Table II, read-out: Zones of Inhibition
Text: as §1

S. gallinarum UC 265 = assay: standard disc plate assay, zones of inhibition; conditions: Salmonella enterica, 12.5 mm paper discs, Table II, read-out: Zones of Inhibition
Text: as §1

E. coli UC 51 = assay: standard disc plate assay, zones of inhibition; conditions: Escherichia coli, UC51, 12.5 mm paper discs, Table II, read-out: Zones of Inhibition
Text: as §1

S. schottmuelleri UC 126 [1] = assay: standard disc plate assay, zones of inhibition; conditions: 1 mg/ml; 12.5 mm paper discs; Table II
Text: as §1

Ps. aeruginosa UC 95 [2] = assay: standard disc plate assay, zones of inhibition; conditions: Pseudomonas aeruginosa, UC95; 1 mg/ml; 12.5 mm paper discs; Table II; read-out: Zones of Inhibition
Text: as §1

P. vulgaris UC 93 [3] = assay: standard disc plate assay, zones of inhibition; conditions: Proteus vulgaris, UC93; 1 mg/ml; 12.5 mm paper discs; Table II; read-out: Zones of Inhibition
Text: as §1

K. pneumoniae UC 57 = assay: standard disc plate assay, zones of inhibition; conditions: Klebsiella pneumoniae, UC57, 12.5 mm paper discs, Table II, read-out: Zones of Inhibition
Text: as §1

S. lutea UC 130 = assay: standard disc plate assay, zones of inhibition; conditions: Micrococcus luteus, UC130; 1 mg/ml; 12.5 mm paper discs; Table II; read-out: Zones of Inhibition
Text: as §1

K. pneumoniae UC 58 = assay: standard microplate test in BHI Agar; conditions: Klebsiella pneumoniae, UC58, 20 h, read-out: Minimum Inhibitory Concentration
Experimental: (§2) The compounds VII, XI, XVβ, XVα and XVI were tested in a standard microplate test in BHI (Brain Heart Infusion) Agar at a concentration of 1 mg./ml. and dilutions thereof at 37° incubation temperature. The end points are read out 20 hours. BHI Agar is supplied by Difco Laboratories, Detroit, Mich.

S. aureus UC 76 = assay: standard microplate test in BHI Agar; conditions: Staphylococcus aureus, UC76, 20 h, read-out: Minimum Inhibitory Concentration
Experimental: as §2

S. flexneri UC 143 = assay: standard microplate test in BHI Agar; conditions: Shigella flexneri, UC143, 37°, 20 hours, Table III, read-out: Minimum Inhibitory Concentration
Experimental: as §2

P. mirabilis UC 6671 = assay: standard microplate test in BHI Agar; conditions: Proteus mirabilis, UC6671, 20 h, read-out: Minimum Inhibitory Concentration
Experimental: as §2

S. faecalis UC 694 = assay: standard microplate test in BHI Agar; conditions: Enterococcus faecalis, UC694, 20 h, read-out: Minimum Inhibitory Concentration
Experimental: as §2

S. typhi UC 215 = assay: standard microplate test in BHI Agar; conditions: Salmonella enterica, 20 h, read-out: Minimum Inhibitory Concentration
Experimental: as §2

P. morganii UC 3186 = assay: standard microplate test in BHI Agar; conditions: Morganella morganii, UC3186, 20 h, read-out: Minimum Inhibitory Concentration
Experimental: as §2

E. coli UC 45 = assay: standard microplate test in BHI Agar; conditions: Escherichia coli, UC45, 37°, 20 hours, Table III, read-out: Minimum Inhibitory Concentration
Experimental: as §2

S. schottmuelleri UC 126 [4] = assay: standard microplate test in BHI Agar; conditions: 37°, 20 hours, Table III, read-out: Minimum Inhibitory Concentration
Experimental: as §2

Ps. aeruginosa UC 95 [5] = assay: standard microplate test in BHI Agar; conditions: Pseudomonas aeruginosa, UC95, 20 h, read-out: Minimum Inhibitory Concentration
Experimental: as §2

P. rettgeri UC 339 = assay: standard microplate test in BHI Agar; conditions: Providencia rettgeri, UC339, 20 h, read-out: Minimum Inhibitory Concentration
Experimental: as §2

S. pneumoniae I UC 41 = assay: standard microplate test in BHI Agar; conditions: Streptococcus pneumoniae, UC41, 20 h, read-out: Minimum Inhibitory Concentration
Experimental: as §2

S. pyogenes UC 152 = assay: standard microplate test in BHI Agar; conditions: Streptococcus pyogenes, UC152, 20 h, read-out: Minimum Inhibitory Concentration
Experimental: as §2

S. marcescens UC 131 = assay: standard microplate test in BHI Agar; conditions: Serratia marcescens, UC131, 20 h, read-out: Minimum Inhibitory Concentration
Experimental: as §2

P. vulgaris UC 93 [6] = assay: standard microplate test in BHI Agar; conditions: Proteus vulgaris, UC93, 20 h, read-out: Minimum Inhibitory Concentration
Experimental: as §2

SMILES: C[C@@]1(O)C[C@H](N)C[C@H](N)[C@H]1O[C@H]1O[C@H](CN)[C@@H](O)[C@H](O)[C@H]1N [6-deoxy-5-methylneamine (VII), 6-deoxy-5-methyl-neamine]
- zone of inhibition at 1000 µg/mL (B. cereus UC 3145): 23 mm
- zone of inhibition at 100 µg/mL (S. aureus UC 80; 0.1 mg/ml): 18 mm
- zone of inhibition at 1000 µg/mL (S. aureus UC 80; 1 mg/ml): 25 mm
- zone of inhibition at 100 µg/mL (B. subtilis UC 564; 0.1 mg/ml): 26 mm
- zone of inhibition at 1000 µg/mL (B. subtilis UC 564; 1 mg/ml): 37 mm
- zone of inhibition at 100 µg/mL (S. gallinarum UC 265; 0.1 mg/ml): 18 mm
- zone of inhibition at 1000 µg/mL (S. gallinarum UC 265; 1 mg/ml): 28 mm
- zone of inhibition at 100 µg/mL (E. coli UC 51; 0.1 mg/ml): 16 mm
- zone of inhibition at 1000 µg/mL (E. coli UC 51; 1 mg/ml): 24 mm
- zone of inhibition at 1000 µg/mL (S. schottmuelleri UC 126 [1]): 21 mm
- zone of inhibition at 1000 µg/mL (Ps. aeruginosa UC 95 [2]): 15 mm
- zone of inhibition at 1000 µg/mL (P. vulgaris UC 93 [3]): 24 mm
- zone of inhibition at 100 µg/mL (K. pneumoniae UC 57; 0.1 mg/ml): 22 mm
- zone of inhibition at 1000 µg/mL (K. pneumoniae UC 57; 1 mg/ml): 29 mm
- zone of inhibition at 1000 µg/mL (S. lutea UC 130): 15 mm
- MIC (K. pneumoniae UC 58): 15.6 µg/mL (≈ 48.7 µM)
- MIC (S. aureus UC 76): 15.6 µg/mL (≈ 48.7 µM)
- MIC (S. flexneri UC 143): 125 µg/mL (≈ 390 µM)
- MIC (P. mirabilis UC 6671): 250 µg/mL (≈ 780 µM)
- MIC (S. faecalis UC 694): > 500 µg/mL
- MIC (S. typhi UC 215): 62.5 µg/mL (≈ 195 µM)
- MIC (P. morganii UC 3186): 125 µg/mL (≈ 390 µM)
- MIC (E. coli UC 45): 125 µg/mL (≈ 390 µM)
- MIC (S. schottmuelleri UC 126 [4]): 62.5 µg/mL (≈ 195 µM)
- MIC (Ps. aeruginosa UC 95 [5]): > 500 µg/mL
- MIC (P. rettgeri UC 339): > 500 µg/mL
- MIC (S. pneumoniae I UC 41): 62.5 µg/mL (≈ 195 µM)
- MIC (S. pyogenes UC 152): 7.8 µg/mL (≈ 24.3 µM)
- MIC (S. marcescens UC 131): 125 µg/mL (≈ 390 µM)
- MIC (P. vulgaris UC 93 [6]): 62.5 µg/mL (≈ 195 µM)
